Laboratory results as given in the supplement of paper PMC8671470.

How the values were obtained:
Details in all cases: 72 h
[1] = test system: myeloid leukemia patient primary cells Pat.2; assay: area under dose-response curve (viability, 1 nM-10 uM) (fraction (0-1)); higher = more sensitive
Description: (§1)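 AUC (0–1, higher = more sensitive) of the 5-point dose–response (1 nM–10 µM, 72 h, CellTiter-Glo) in primary AML/CML patient mononuclear cells. 0.030103 is the floor for inactive compounds.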

[2] = test system: myeloid leukemia patient primary cells Pat.12; assay: as above
Description: as §1

[3] = test system: myeloid leukemia patient primary cells Pat.15; assay: as above
Description: as §1

[4] = test system: myeloid leukemia patient primary cells Pat.4; assay: as above
Description: as §1

[5] = test system: myeloid leukemia patient primary cells Pat.8; assay: as above
Description: as §1

[6] = test system: myeloid leukemia patient primary cells Pat.5; assay: as above
Description: as §1

[7] = test system: myeloid leukemia patient primary cells Pat.11; assay: as above
Description: as §1

[8] = test system: myeloid leukemia patient primary cells Pat.10; assay: as above
Description: as §1

[9] = test system: myeloid leukemia patient primary cells Pat.1; assay: as above
Description: as §1

[10] = test system: myeloid leukemia patient primary cells Pat.3; assay: as above
Description: as §1

[11] = test system: myeloid leukemia patient primary cells Pat.14; assay: as above
Description: as §1

[12] = test system: myeloid leukemia patient primary cells Pat.6; assay: as above
Description: as §1

[13] = test system: myeloid leukemia patient primary cells Pat.9; assay: as above
Description: as §1

[14] = test system: myeloid leukemia patient primary cells Pat.13; assay: as above
Description: as §1

[15] = test system: myeloid leukemia patient primary cells Pat.7; assay: as above
Description: as §1

HL-60 = assay: cell viability (% survival relative to DMSO control); higher = less cytotoxic
Description: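 8x8 drug-combination matrices (0-5000 nM; rosiglitazone and lestaurtinib 0-1000 nM) were run in HL-60 cells for 72 h with a CellTiter-Glo read-out. Survival is normalised to DMSO and 10 µM bortezomib and clipped at 100%. Bliss synergy was analysed in SynergyFinder.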

Question: `CN1CCN(CCCN2c3ccccc3Sc3ccc(C(F)(F)F)cc32)CC1` [Trifluoperazine] was tested. Which “area under dose-response curve” value [1] did it give?
Answer: 0.108

Question: What about the “area under dose-response curve” value [2] of the same molecule?
Answer: 0.0812

Question: And the “area under dose-response curve” value [3]?
Answer: 0.102

Question: What about the “area under dose-response curve” value [4] of the same molecule?
Answer: 0.162

Question: What about the “area under dose-response curve” value [5] of the same molecule?
Answer: 0.106

Question: And the “area under dose-response curve” value [6]?
Answer: 0.36

Question: What about the “area under dose-response curve” value [7] of the same molecule?
Answer: 0.174

Question: What about the “area under dose-response curve” value [8] of the same molecule?
Answer: 0.362

Question: And the “area under dose-response curve” value [9]?
Answer: 0.209

Question: What about the “area under dose-response curve” value [10] of the same molecule?
Answer: 0.429

Question: What about the “area under dose-response curve” value [11] of the same molecule?
Answer: 0.294

Question: And the “area under dose-response curve” value [12]?
Answer: 0.187

Question: And the “area under dose-response curve” value [13]?
Answer: 0.423

Question: And the “area under dose-response curve” value [14]?
Answer: 0.182

Question: What about the “area under dose-response curve” value [15] of the same molecule?
Answer: 0.517

Question: Which “area under dose-response curve” value [2] does the source give for `CN(Cc1cnc2nc(N)nc(N)c2n1)c1ccc(C(=O)N[C@@H](CCC(=O)O)C(=O)O)cc1` [Methotrexate] here?
Answer: < 0.0301

Question: And the “area under dose-response curve” value [3]?
Answer: < 0.0301

Question: What about the “area under dose-response curve” value [4] of the same molecule?
Answer: < 0.0301

Question: And the “area under dose-response curve” value [5]?
Answer: < 0.0301

Question: What about the “area under dose-response curve” value [6] of the same molecule?
Answer: 0.384

Question: What about the “area under dose-response curve” value [7] of the same molecule?
Answer: < 0.0301

Question: And the “area under dose-response curve” value [8]?
Answer: 0.294

Question: What about the “area under dose-response curve” value [9] of the same molecule?
Answer: < 0.0301

Question: And the “area under dose-response curve” value [10]?
Answer: 0.469

Question: And the “area under dose-response curve” value [11]?
Answer: 0.306

Question: What about the “area under dose-response curve” value [12] of the same molecule?
Answer: < 0.0301

Question: What about the “area under dose-response curve” value [13] of the same molecule?
Answer: 0.526

Question: What about the “area under dose-response curve” value [14] of the same molecule?
Answer: < 0.0301

Question: What about the “area under dose-response curve” value [15] of the same molecule?
Answer: 0.399

Question: With `O=C(O)CC[N+](=O)[O-]` [3-nitropropionic acid] as the molecule, how does the “area under dose-response curve” value [2] read?
Answer: 0.0457

Question: And the “area under dose-response curve” value [3]?
Answer: 0.123

Question: And the “area under dose-response curve” value [4]?
Answer: 0.113

Question: And the “area under dose-response curve” value [5]?
Answer: < 0.0301

Question: And the “area under dose-response curve” value [6]?
Answer: 0.168

Question: And the “area under dose-response curve” value [7]?
Answer: < 0.0301

Question: And the “area under dose-response curve” value [8]?
Answer: 0.0892

Question: What about the “area under dose-response curve” value [9] of the same molecule?
Answer: 0.0529

Question: And the “area under dose-response curve” value [10]?
Answer: 0.133

Question: What about the “area under dose-response curve” value [11] of the same molecule?
Answer: 0.112

Question: And the “area under dose-response curve” value [12]?
Answer: 0.0437

Question: And the “area under dose-response curve” value [13]?
Answer: 0.148

Question: What about the “area under dose-response curve” value [14] of the same molecule?
Answer: 0.0548

Question: And the “area under dose-response curve” value [15]?
Answer: 0.058

Question: What does the source list for `CN(CCOc1ccc(Cc2sc(O)nc2O)cc1)c1ccccn1` [Rosiglitazone]?
Answer: area under dose-response curve [1]: < 0.0301; area under dose-response curve [2]: < 0.0301; area under dose-response curve [4]: < 0.0301; area under dose-response curve [5]: < 0.0301; area under dose-response curve [6]: 0.0995; area under dose-response curve [7]: < 0.0301; area under dose-response curve [8]: 0.0632; area under dose-response curve [9]: < 0.0301; area under dose-response curve [10]: 0.0764; area under dose-response curve [11]: < 0.0301; area under dose-response curve [12]: < 0.0301; area under dose-response curve [13]: 0.139; area under dose-response curve [14]: < 0.0301; area under dose-response curve [15]: < 0.0301

Question: What does the source list for `CCn1c(=Cc2cccc[n+]2CC)sc(=C2Sc3ccccc3N2C)c1=O` [MKT 077] + CN(C)CCNC(=O)c1cccn2c(=O)c3cc4ccccc4cc3nc12 [Bmh-21]?
Answer: cell viability (HL-60; drug1 concentration 5 nM, drug2 concentration 5 nM): 72.8%; cell viability (HL-60; drug1 concentration 5 nM, drug2 concentration 10 nM): 97.1%; cell viability (HL-60; drug1 concentration 5 nM, drug2 concentration 50 nM): > 100%; cell viability (HL-60; drug1 concentration 5 nM, drug2 concentration 100 nM): > 100%; cell viability (HL-60; drug1 concentration 5 nM, drug2 concentration 500 nM): 58.2%; cell viability (HL-60; drug1 concentration 5 nM, drug2 concentration 1000 nM): 31.2%; cell viability (HL-60; drug1 concentration 5 nM, drug2 concentration 5000 nM): 16.4%; cell viability (HL-60; drug1 concentration 10 nM, drug2 concentration 5 nM): > 100%; cell viability (HL-60; drug1 concentration 10 nM, drug2 concentration 10 nM): 92.4%; cell viability (HL-60; drug1 concentration 10 nM, drug2 concentration 50 nM): 89.5%; cell viability (HL-60; drug1 concentration 10 nM, drug2 concentration 100 nM): > 100%; cell viability (HL-60; drug1 concentration 10 nM, drug2 concentration 500 nM): 61.1%; cell viability (HL-60; drug1 concentration 10 nM, drug2 concentration 1000 nM): 58.3%; cell viability (HL-60; drug1 concentration 10 nM, drug2 concentration 5000 nM): 30.1%; cell viability (HL-60; drug1 concentration 50 nM, drug2 concentration 5 nM): > 100%; cell viability (HL-60; drug1 concentration 50 nM, drug2 concentration 10 nM): > 100%; cell viability (HL-60; drug1 concentration 50 nM, drug2 concentration 50 nM): > 100%; cell viability (HL-60; drug1 concentration 50 nM, drug2 concentration 100 nM): > 100%; cell viability (HL-60; drug1 concentration 50 nM, drug2 concentration 500 nM): 40.5%; cell viability (HL-60; drug1 concentration 50 nM, drug2 concentration 1000 nM): 48.1%; cell viability (HL-60; drug1 concentration 50 nM, drug2 concentration 5000 nM): -2.48%; cell viability (HL-60; drug1 concentration 100 nM, drug2 concentration 5 nM): > 100%; cell viability (HL-60; drug1 concentration 100 nM, drug2 concentration 10 nM): > 100%; cell viability (HL-60; drug1 concentration 100 nM, drug2 concentration 50 nM): > 100%; cell viability (HL-60; drug1 concentration 100 nM, drug2 concentration 100 nM): > 100%; cell viability (HL-60; drug1 concentration 100 nM, drug2 concentration 500 nM): 44.1%; cell viability (HL-60; drug1 concentration 100 nM, drug2 concentration 1000 nM): 66.9%; cell viability (HL-60; drug1 concentration 100 nM, drug2 concentration 5000 nM): 43.2%; cell viability (HL-60; drug1 concentration 500 nM, drug2 concentration 5 nM): > 100%; cell viability (HL-60; drug1 concentration 500 nM, drug2 concentration 10 nM): 62.4%; cell viability (HL-60; drug1 concentration 500 nM, drug2 concentration 50 nM): 87.1%; cell viability (HL-60; drug1 concentration 500 nM, drug2 concentration 100 nM): 85.5%; cell viability (HL-60; drug1 concentration 500 nM, drug2 concentration 500 nM): 86%; cell viability (HL-60; drug1 concentration 500 nM, drug2 concentration 1000 nM): 18.6%; cell viability (HL-60; drug1 concentration 500 nM, drug2 concentration 5000 nM): 29.9%; cell viability (HL-60; drug1 concentration 1000 nM, drug2 concentration 5 nM): > 100%; cell viability (HL-60; drug1 concentration 1000 nM, drug2 concentration 10 nM): > 100%; cell viability (HL-60; drug1 concentration 1000 nM, drug2 concentration 50 nM): > 100%; cell viability (HL-60; drug1 concentration 1000 nM, drug2 concentration 100 nM): > 100%; cell viability (HL-60; drug1 concentration 1000 nM, drug2 concentration 500 nM): 41.3%; cell viability (HL-60; drug1 concentration 1000 nM, drug2 concentration 1000 nM): 34.4%; cell viability (HL-60; drug1 concentration 1000 nM, drug2 concentration 5000 nM): 7.94%; cell viability (HL-60; drug1 concentration 5000 nM, drug2 concentration 5 nM): 82%; cell viability (HL-60; drug1 concentration 5000 nM, drug2 concentration 10 nM): > 100%; cell viability (HL-60; drug1 concentration 5000 nM, drug2 concentration 50 nM): > 100%; cell viability (HL-60; drug1 concentration 5000 nM, drug2 concentration 100 nM): > 100%; cell viability (HL-60; drug1 concentration 5000 nM, drug2 concentration 500 nM): 84.4%; cell viability (HL-60; drug1 concentration 5000 nM, drug2 concentration 1000 nM): 54.3%; cell viability (HL-60; drug1 concentration 5000 nM, drug2 concentration 5000 nM): 52%

Question: For `C[C@]12C=CC(=O)C=C1CC[C@@H]1[C@@H]2[C@@H](O)C[C@@]2(C)[C@H]1CC[C@]2(O)C(=O)CO` [Prednisolone], which “area under dose-response curve” value [2] is on record?
Answer: < 0.0301

Question: What about the “area under dose-response curve” value [5] of the same molecule?
Answer: 0.0885

Question: What about the “area under dose-response curve” value [6] of the same molecule?
Answer: < 0.0301

Question: And the “area under dose-response curve” value [8]?
Answer: 0.678

Question: And the “area under dose-response curve” value [9]?
Answer: < 0.0301

Question: And the “area under dose-response curve” value [10]?
Answer: 0.227

Question: What about the “area under dose-response curve” value [11] of the same molecule?
Answer: < 0.0301

Question: And the “area under dose-response curve” value [13]?
Answer: < 0.0301

Question: And the “area under dose-response curve” value [14]?
Answer: < 0.0301

Question: What about the “area under dose-response curve” value [15] of the same molecule?
Answer: < 0.0301
